Results: patent US11203575B2, “Methhod for producing a crystalline form of 5-amino-2,3-dihydrophthalazine-1,4-dione” (METRIOPHARM AG, priority 2016, dated 2021)

Text: FIG. 5: TG-DSC diagram of crystalline form of 5-amino-2,3-dihydro-1,4-phthalazinedione produced by the method according to the invention. Upper trace: Mass loss determined by TG. Lower trace: Heat flow determined by DSC

Question: Which results are given for Nc1cccc2c(=O)[nH][nH]c(=O)c12 [crystalline form of luminol, 5-amino-2,3-dihydrophthalazine-1,4-dione]?
Answer: solid state transformation to other forms (TG-DSC, until thermal degradation of the crystalline compound sets in (FIG. 5)): no solid state transformation to other forms is observed; thermal stability up to (simultaneous TG and DSC, solid crystalline form (FIG. 5)): up to 328±1 °C
